Assay results reported in ChEMBL document CHEMBL3885861, “Open TG-GATES”.

Species: Rattus norvegicus
Test: Open TG-GATES - Regimen: Daily Repeat
Format: toxicity, organism-based, Sprague-Dawley
Parameters: regimen Daily Repeat, gender Male, age 6 weeks
Conditions: in vivo, po, 300 mg/kg, route gavage, dose level Middle; for APTT / Bas / Eos / Fbg / Hb / Ht / Lym / MCH / MCHC / MCV / Mono / Neu / PT / Plat / RBC / Ret / WBC: tissue Blood; for KIDNEY_L / KIDNEY_R / KIDNEY_TOTAL: tissue Kidney; for LIVER: tissue Liver; for A/G / ALP / ALT / AST / BUN / CRE / Ca / Cl / DBIL / GLC / IP / K / LDH / Na / PL / RALB / TBIL / TC / TG / TP / gamma-GTP: tissue Plasma

## Cc1nnc2n1-c1ccc(Cl)cc1C(c1ccccc1Cl)=NC2 [TRIAZOLAM]
72 h, time 3 day
  TERMINAL_BW: 220.9 g
  APTT: 25.7 s
  Bas: 0.2%
  Eos: 1%
  Fbg: 302 mg/dL
  Hb: 13.8 g/dL
  Ht: 41.2%
  Lym: 78.6%
  MCH: 21.6 pg
  MCHC: 33.4%
  MCV: 64.4 fL
  Mono: 3.2%
  Neu: 16.2%
  PT: 12.8 s
  Plat: 108.5 x10_4/uL
  RBC: 639.2 x10_4/ul
  Ret: 6.8%
  WBC: 124.2 x10_2/uL
  KIDNEY_L: 1 g
  KIDNEY_R: 1 g
  KIDNEY_TOTAL: 1.9 g
  LIVER: 10.9 g
  A/G: 0.9
  ALP: 1522.4 IU/L
  ALT: 53.4 IU/L
  AST: 74.4 IU/L
  BUN: 14.6 mg/dL
  CRE: 0.2 mg/dL
  Ca: 11.1 mg/dL
  Cl: 104.2 meq/L
  DBIL: 0.014 mg/dL
  GLC: 176.8 mg/dL
  IP: 8.2 mg/dL
  K: 3.9 meq/L
  LDH: 104.8 IU/L
  Na: 141.6 meq/L
  PL: 155 mg/dL
  RALB: 2.6 g/dL
  TBIL: 0.048 mg/dL
  TC: 81 mg/dL
  TG: 82 mg/dL
  TP: 5.6 g/dL
  gamma-GTP: 1 IU/L
[…], time 7 day
  TERMINAL_BW: 262.7 g
  APTT: 19.2 s
  Bas: 0%
  Eos: 1%
  Fbg: 262.6 mg/dL
  Hb: 13.6 g/dL
  Ht: 40.5%
  Lym: 76.6%
  MCH: 21.4 pg
  MCHC: 33.6%
  MCV: 63.6 fL
  Mono: 3.4%
  Neu: 18.6%
  PT: 12.8 s
  Plat: 124.7 x10_4/uL
  RBC: 637.8 x10_4/ul
  Ret: 7%
  WBC: 119.6 x10_2/uL
  KIDNEY_L: 1.1 g
  KIDNEY_R: 1.1 g
  KIDNEY_TOTAL: 2.2 g
  LIVER: 12.6 g
  A/G: 0.9
  ALP: 1686 IU/L
  ALT: 53 IU/L
  AST: 75 IU/L
  BUN: 19 mg/dL
  CRE: 0.2 mg/dL
  Ca: 11.1 mg/dL
  Cl: 104.8 meq/L
  DBIL: 0.012 mg/dL
  GLC: 187.2 mg/dL
  IP: 7.5 mg/dL
  K: 4.2 meq/L
  LDH: 84.8 IU/L
  Na: 141.4 meq/L
  PL: 162.8 mg/dL
  RALB: 2.6 g/dL
  TBIL: 0.038 mg/dL
  TC: 79 mg/dL
  TG: 103.4 mg/dL
  TP: 5.7 g/dL
  gamma-GTP: 1 IU/L
[…], time 14 day
  TERMINAL_BW: 306.6 g
  APTT: 17.8 s
  Bas: 0.4%
  Eos: 1%
  Fbg: 245.8 mg/dL
  Hb: 14.1 g/dL
  Ht: 43.1%
  Lym: 76%
  MCH: 19.9 pg
  MCHC: 32.8%
  MCV: 60.8 fL
  Mono: 2.2%
  Neu: 19.4%
  PT: 13.5 s
  Plat: 113 x10_4/uL
  RBC: 710 x10_4/ul
  Ret: 4.9%
  WBC: 121.8 x10_2/uL
  KIDNEY_L: 1.2 g
  KIDNEY_R: 1.2 g
  KIDNEY_TOTAL: 2.4 g
  LIVER: 13.4 g
  A/G: 0.8
  ALP: 1485.8 IU/L
  ALT: 43 IU/L
  AST: 73 IU/L
  BUN: 15 mg/dL
  CRE: 0.2 mg/dL
  Ca: 10.8 mg/dL
  Cl: 104.6 meq/L
  DBIL: 0.008 mg/dL
  GLC: 182.2 mg/dL
  IP: 7.2 mg/dL
  K: 4.1 meq/L
  LDH: 87.4 IU/L
  Na: 142.8 meq/L
  PL: 140 mg/dL
  RALB: 2.6 g/dL
  TBIL: 0.036 mg/dL
  TC: 67.2 mg/dL
  TG: 105.4 mg/dL
  TP: 5.7 g/dL
  gamma-GTP: 1.2 IU/L
[…], time 28 day
  TERMINAL_BW: 407.3 g
  APTT: 18.4 s
  Bas: 0%
  Eos: 1.2%
  Fbg: 262.4 mg/dL
  Hb: 15.3 g/dL
  Ht: 45.6%
  Lym: 82%
  MCH: 19.3 pg
  MCHC: 33.6%
  MCV: 57.5 fL
  Mono: 1.4%
  Neu: 14.2%
  PT: 13.6 s
  Plat: 106.2 x10_4/uL
  RBC: 793.4 x10_4/ul
  Ret: 2.3%
  WBC: 88.2 x10_2/uL
  KIDNEY_L: 1.4 g
  KIDNEY_R: 1.4 g
  KIDNEY_TOTAL: 2.8 g
  LIVER: 15.8 g
  A/G: 0.8
  ALP: 1211.8 IU/L
  ALT: 36.4 IU/L
  AST: 67.8 IU/L
  BUN: 16.8 mg/dL
  CRE: 0.3 mg/dL
  Ca: 10.7 mg/dL
  Cl: 105 meq/L
  DBIL: 0.012 mg/dL
  GLC: 186.4 mg/dL
  IP: 6.2 mg/dL
  K: 4.1 meq/L
  LDH: 82.2 IU/L
  Na: 142 meq/L
  PL: 145.8 mg/dL
  RALB: 2.7 g/dL
  TBIL: 0.058 mg/dL
  TC: 70.6 mg/dL
  TG: 110.8 mg/dL
  TP: 6.2 g/dL
  gamma-GTP: 1 IU/L
